From patent US8410170B2, “Use of isothiocyanates compounds in treating prostatic diseases and skin cancer” (Wuxi JC Pharmaceutical Technology Co., Ltd., priority 2005, dated 2013)
Entries after “also recorded” stand apart in the source; their conditions may differ.

Assays:
GSTP1 = experiment: Western blot to detect GSTP1 protein in LNCaP cells; format: cell-based, human; settings: LNCaP cells exposed 24 hrs
Experimental: Western blot to detect GSTP1 protein (FIG. 1): […] The cells were harvested, washed and total cellular proteins were extracted as described previously (Wang, […], et al. […] Cancer Res 61(20): 7544-51, 2001). Fifty μg cellular extracts were separated on a SDS-PAGE, electro-transferred to nitrocellulose filters, and immunoblotted initially with antibodies against GSTP1. The same membranes were stripped and re-probed with β-actin for loading control. The result was recorded by ECL films.

LNCaP AD = experiment: MTT growth inhibition, hormone dependent LNCaP AD; format: cell-based; settings: Homo sapiens, LNCaP, 168 h, read-out: IC50, growth inhibition
Description: The human prostate cancer cell line LNCaP AD was purchased from the American Type Culture Collection. LNCaP AI cell line was derived from LNCaP cells using a method described previously by Gao et al. (Gao, M., Ossowski, L., and Ferrari, A. C. Activation of Rb and decline in androgen receptor protein precede retinoic acid-induced apoptosis in androgen-dependent LNCaP cells and their androgen-independent derivative. J Cell Physiol, 179: 336-346, 1999). The AD and AI cells were maintained in RPMI-1640 with 10% fetal bovine serum (FBS) and charcoal stripped fetal bovine serum, penicillin-streptomycin for incubation at 5% CO2 and 37° C. respectively.
MTT: MTT and SRB method were used to determine the effects of various isothiocyanates on cell growth as described previously (Kreis, Budman et al, 1997). Briefly, human prostate cancer cell line LNCaP grown exponentially were aliquoted into 96-well plates at a density of 2500 cells/200 μl per well. Twenty-four hrs after the incubation, the cells were exposed for seven days to serial dilutions of indicated isothiocyanate or paclitaxel. […] The absorbance was measured at wavelength 540 nm. The percent of cell survival (T/C%) were calculated based on the results of test groups to that of the control group. […]

**Q.** With `S=C=NCCc1ccccc1` [PEITC, phenethyl isothiocyanate] as the molecule, how does the “expression of GSTP1 (Western blot)” value (GSTP1) read?
**A.** The value was “significantly restored; also recorded: effectively induce”.

**Q.** And the IC50 (LNCaP AD)?
**A.** Its IC50 is 600 nM.
